# Measured values published in US10975056B2 (GlaxoSmithKline Intellectual Property Development Limited, priority 2016, dated 2021).
# Counter-ions that a name gives are not always drawn.
# How the values were obtained:
# [1] = tested on: erythroid progenitor cells (EPCs); assay: Fetal hemoglobin (HbF) ELISA in day 7 erythroid progenitor cells; format: cell-based, human; conditions: Homo sapiens, Erythroid progenitor cell, HbF ELISA, day 7 EPCs, 5 days; read-out: EPC ELISA (pEC50 category) (converted);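 note: for fetal hemoglobin induction normalized to vehicle-treated cells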
# How it was run: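 CD34+-derived EPCs, 1,000 cells/well, rhEPO 3 U/mL; Compound A 22-pt series, […]; 5 d, 37° C, 5% CO2. Freeze-thaw lysis, anti-HbF capture + HRP anti-HbF, TMB, OD450. Normalized to DMSO wells.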
# DNMT1 = DNMT1 (Homo sapiens, UniProt P26358); assay: DNMT1 biochemical activity, breaklight assay and/or SPA assay; conditions: binned activity in either the breaklight or the SPA assay; for IC50: read-out: DNMT1 BioChemical (pIC50 category) (converted)
# Sequence of DNMT1 (P26358 whole entry, looked up): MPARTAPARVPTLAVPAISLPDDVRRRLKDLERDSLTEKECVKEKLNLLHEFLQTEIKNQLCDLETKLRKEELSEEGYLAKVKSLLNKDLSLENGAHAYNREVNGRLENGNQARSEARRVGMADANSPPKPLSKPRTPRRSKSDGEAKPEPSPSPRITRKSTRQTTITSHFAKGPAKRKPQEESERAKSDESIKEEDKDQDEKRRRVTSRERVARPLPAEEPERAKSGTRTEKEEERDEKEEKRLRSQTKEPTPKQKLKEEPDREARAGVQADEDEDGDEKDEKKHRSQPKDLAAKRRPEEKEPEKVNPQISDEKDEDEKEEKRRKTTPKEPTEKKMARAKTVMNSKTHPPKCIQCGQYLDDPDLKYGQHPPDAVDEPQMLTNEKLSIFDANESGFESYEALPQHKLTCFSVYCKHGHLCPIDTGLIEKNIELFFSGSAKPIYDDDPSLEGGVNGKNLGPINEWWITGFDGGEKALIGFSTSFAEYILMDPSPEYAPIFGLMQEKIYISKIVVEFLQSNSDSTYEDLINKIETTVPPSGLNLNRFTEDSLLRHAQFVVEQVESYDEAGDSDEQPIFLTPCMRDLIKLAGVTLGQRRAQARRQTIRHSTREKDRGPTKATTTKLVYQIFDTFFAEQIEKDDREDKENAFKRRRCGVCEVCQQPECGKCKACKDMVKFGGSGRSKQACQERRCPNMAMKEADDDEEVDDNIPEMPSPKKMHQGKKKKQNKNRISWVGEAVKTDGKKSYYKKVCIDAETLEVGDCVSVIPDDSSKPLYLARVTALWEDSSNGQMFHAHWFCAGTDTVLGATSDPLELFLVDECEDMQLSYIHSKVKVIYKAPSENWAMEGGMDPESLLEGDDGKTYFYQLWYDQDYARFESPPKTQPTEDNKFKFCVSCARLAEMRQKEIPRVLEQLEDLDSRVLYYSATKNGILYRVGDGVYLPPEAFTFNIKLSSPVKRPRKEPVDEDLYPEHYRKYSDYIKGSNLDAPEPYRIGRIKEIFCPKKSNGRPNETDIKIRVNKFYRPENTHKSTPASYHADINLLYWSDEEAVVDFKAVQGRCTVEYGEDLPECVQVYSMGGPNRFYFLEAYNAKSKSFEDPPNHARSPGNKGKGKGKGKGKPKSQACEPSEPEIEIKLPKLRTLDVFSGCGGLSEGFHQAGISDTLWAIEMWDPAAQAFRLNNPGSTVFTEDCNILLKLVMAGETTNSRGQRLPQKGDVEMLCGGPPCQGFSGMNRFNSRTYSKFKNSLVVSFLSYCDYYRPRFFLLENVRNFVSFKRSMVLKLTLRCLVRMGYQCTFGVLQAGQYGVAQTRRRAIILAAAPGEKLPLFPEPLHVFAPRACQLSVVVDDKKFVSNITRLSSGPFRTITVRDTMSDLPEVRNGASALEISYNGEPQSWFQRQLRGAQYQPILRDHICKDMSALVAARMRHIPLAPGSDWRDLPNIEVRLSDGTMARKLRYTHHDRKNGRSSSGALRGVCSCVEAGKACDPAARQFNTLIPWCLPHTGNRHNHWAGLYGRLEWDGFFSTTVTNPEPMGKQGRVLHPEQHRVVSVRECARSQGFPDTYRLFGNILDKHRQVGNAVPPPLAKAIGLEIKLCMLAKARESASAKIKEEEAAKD
EC50 [1] [µM],IC50 (DNMT1) [µM],DNMT1 BioChemical (pIC50 category) (DNMT1),Compound
> 31.6,0.316 to 1,–,"CCc1c(C#N)c(SCc2ccc3c(c2)C(=O)C(=O)N3)nc(N2CCCN(C)CC2)c1C#N [Example 348, 2-(((2,3-Dioxoindolin-5-yl)methyl)thio)-4-ethyl-6-(4-methyl-1,4-diazepan-1-yl)pyridine-3,5-dicarbonitrile]"
1 to 31.6,0.316 to 1,–,"CCc1c(C#N)c(SCc2ccc(CNC(C)=O)cc2)nc(N(C)Cc2nnc[nH]2)c1C#N [Example 349, N-(4-(((6-(((4H-1,2,4-Triazol-3-yl)methyl)(methyl)amino)-3,5-dicyano-4-ethylpyridin-2-yl)thio)methyl)benzyl)acetamide]"
> 31.6,0.316 to 1,–,"CCc1c(C#N)c(SCc2ccc(-c3ccccn3)cc2)nc(N2CCC(N3CCCC3)CC2)c1C#N [Example 350, 4-Ethyl-2-((4-(pyridin-2-yl)benzyl)thio)-6-(4-(pyrrolidin-1-yl)piperidin-1-yl)pyridine-3,5-dicarbonitrile]"
> 31.6,0.316 to 1,–,CCc1nc(SC(C(N)=O)c2ccccc2)c(C#N)c(CC)c1C#N (centres unmarked) [Example 351]
1 to 31.6,0.316 to 1,–,"CCc1c(C#N)c(SC(C(N)=O)c2ccccc2)nc(N(C)CCn2cnnc2)c1C#N (centres unmarked) [Example 352, 2-((6-((2-(4H-1,2,4-Triazol-4-yl)ethyl)(methyl)amino)-3,5-dicyano-4-ethylpyridin-2-yl)thio)-2-phenylacetamide]"
1 to 31.6,0.316 to 1,–,"CCc1c(C#N)c(SCc2ccc(N(C)C(C)=O)cc2)nc(N2CCCN(C)CC2)c1C#N [Example 354, N-(4-(((3,5-Dicyano-4-ethyl-6-(4-methyl-1,4-diazepan-1-yl)pyridin-2-yl)thio)methyl)phenyl)-N-methylacetamide]"
< 0.316,–,D (Category D: ≥6.5),"CCc1c(C#N)c(SCc2ccc(N(C)S(C)(=O)=O)cc2)nc(N2CCCN(C)CC2)c1C#N [Example 355, N-(4-(((3,5-Dicyano-4-ethyl-6-(4-methyl-1,4-diazepan-1-yl)pyridin-2-yl)thio)methyl)phenyl)-N-methylmethanesulfonamide]"
0.316 to 1,–,D (Category D: ≥6.5),"CCc1c(C#N)c(SC(C(N)=O)c2ccccc2)nc(N(C)Cc2cc[nH]n2)c1C#N (centres unmarked) [Example 356, 2-((6-(((1H-Pyrazol-3-yl)methyl)(methyl)amino)-3,5-dicyano-4-ethylpyridin-2-yl)thio)-2-phenylacetamide]"
> 31.6,0.316 to 1,–,"CCc1c(C#N)c(SCc2ccc(B(O)O)cc2)nc(N2CCCN(C)CC2)c1C#N [Example 357, 4-((3,5-Dicyano-4-ethyl-6-(4-methyl-1,4-diazepan-1-yl)pyridin-2-ylthio)methyl)phenylboronic acid]"
> 31.6,–,D (Category D: ≥6.5),"CCc1c(C#N)c(SCc2ccc(CNC(=O)CNC)cc2)nc(N2CCCN(C)CC2)c1C#N [Example 358, N-(4-(((3,5-Dicyano-4-ethyl-6-(4-methyl-1,4-diazepan-1-yl)pyridin-2-yl)thio)methyl)benzyl)-2-(methylamino)acetamide]"
1 to 31.6,0.316 to 1,–,"CCc1c(C#N)c(SC(C(N)=O)c2ccccc2)nc(N2CCc3[nH]nnc3C2)c1C#N (centres unmarked) [Example 359, 2-((3,5-Dicyano-6-(6,7-dihydro-1H-[1,2,3]triazolo[4,5-c]pyridin-5(4H)-yl)-4-ethylpyridin-2-yl)thio)-2-phenylacetamide]"
1 to 31.6,0.316 to 1,–,"CCc1c(C#N)c(SCc2ccc(N)c(F)c2)nc(N2CCCN(C)CC2)c1C#N [Example 360, 2-((4-Amino-3-fluorobenzyl)thio)-4-ethyl-6-(4-methyl-1,4-diazepan-1-yl)pyridine-3,5-dicarbonitrile]"
1 to 31.6,0.316 to 1,–,"CCc1c(C#N)c(SCc2ccc(NS(C)(=O)=O)c(F)c2)nc(N2CCCN(C)CC2)c1C#N [Example 361, N-(4-(((3,5-Dicyano-4-ethyl-6-(4-methyl-1,4-diazepan-1-yl)pyridin-2-yl)thio)methyl)-2-fluorophenyl)methanesulfonamide]"
> 31.6,0.316 to 1,–,CCc1c(C#N)c(SCc2ccc(NC(C)=O)c(F)c2)nc(N2CCCN(C)CC2)c1C#N [Example 362]
1 to 31.6,0.316 to 1,–,CCc1c(C#N)c(SCc2cnn(CCO)c2)nc(N2CCC(N)CC2)c1C#N [Example 363]
< 0.316,–,D (Category D: ≥6.5),"CCc1c(C#N)c(SC(C(N)=O)c2ccccc2)nc(N(C)Cc2ncc[nH]2)c1C#N (centres unmarked) [Example 364, 2-((6-(((1H-Imidazol-2-yl)methyl)(methyl)amino)-3,5-dicyano-4-ethylpyridin-2-yl)thio)-2-phenylacetamide]"
1 to 31.6,0.316 to 1,–,CCc1c(C#N)c(SC(C(N)=O)c2ccccc2)nc(N(C)Cc2cnc[nH]2)c1C#N (centres unmarked) [Example 365]
1 to 31.6,0.316 to 1,–,CCc1c(C#N)c(SCc2ccc(CNC(=O)CO)cc2)nc(N2CCC(O)C2)c1C#N (centres unmarked) [Example 367]
> 31.6,–,D (Category D: ≥6.5),"CCc1c(C#N)c(SC(C(N)=O)c2ccc(C(N)=O)cc2)nc(N2CCCN(C)CC2)c1C#N (centres unmarked) [Example 368, 4-(2-Amino-1-((3,5-dicyano-4-ethyl-6-(4-methyl-1,4-diazepan-1-yl)pyridin-2-yl)thio)-2-oxoethyl)benzamide]"
1 to 31.6,–,D (Category D: ≥6.5),"N#Cc1c(SC(C(N)=O)c2ccccc2)nc(N2CCC(O)C2)c(C#N)c1C1CC1 (centres unmarked) [Example 369, 2-((3,5-Dicyano-4-cyclopropyl-6-(3-hydroxypyrrolidin-1-yl)pyridin-2-yl)thio)-2-phenylacetamide]"
1 to 31.6,0.316 to 1,–,"CCc1c(C#N)c(SC(C(N)=O)c2ccccc2)nc(N2CCC(O)C2)c1C#N (centres unmarked) [Example 370, 2-((3,5-Dicyano-4-ethyl-6-(3-hydroxypyrrolidin-1-yl)pyridin-2-yl)thio)-2-phenylacetamide]"
1 to 31.6,0.316 to 1,–,CCc1c(C#N)c(SCc2ccc(CNC(=O)CO)cc2)nc(N(C)CC(N)=O)c1C#N [Example 371]
0.316 to 1,–,D (Category D: ≥6.5),"C[C@@H](N)C(=O)NC1CCN(c2nc(SC(C(N)=O)c3ccccc3)c(C#N)c(C3CC3)c2C#N)CC1 (stereo partly drawn) [Example 372, (2R)-2-Amino-N-(1-(6-((2-amino-2-oxo-1-phenylethyl)thio)-3,5-dicyano-4-cyclopropylpyridin-2-yl)piperidin-4-yl)propanamide]"

Compound,EC50 [1] [µM],IC50 (DNMT1) [µM],DNMT1 BioChemical (pIC50 category) (DNMT1)
"CCc1c(C#N)c(SC(C(N)=O)c2ccccc2)nc(N2CCC(NC(=O)[C@@H](C)N)CC2)c1C#N (stereo partly drawn) [Example 366, (2R)-2-Amino-N-(1-(6-((2-amino-2-oxo-1-phenylethyl)thio)-3,5-dicyano-4-ethylpyridin-2-yl)piperidin-4-yl)propanamide, Hydrochloride]",< 0.316,–,D (Category D: ≥6.5)
"CN(CCN)c1nc(SC(C(N)=O)c2ccccc2)c(C#N)c(C2CC2)c1C#N (centres unmarked) [Example 373, 2-((6-((2-Aminoethyl)(methyl)amino)-3,5-dicyano-4-cyclopropylpyridin-2-yl)thio)-2-phenylacetamide, Hydrochloride]",0.316 to 1,–,D (Category D: ≥6.5)
